Test results from patent US20240307416A1, “FILM-FORMING COMPOSITIONS COMPRISING SALICYLIC ACID AND METHODS OF USE” (3M INNOVATIVE PROPERTIES COMPANY, priority 2021, published 2024).

Experiment: Dissolution of salicylic acid in film-forming gel components
Format: physicochemical

SMILES: O=C(O)c1ccccc1O [salicylic acid]
- Solubility of salicylic acid in the silicate tackifying resin and/or the volatile solvent: does not appear to be readily soluble
- Dissolution of salicylic acid in the formulation of U.S. Pat. No. 10,603,405 (SPOx added at the end of the manufacture): did not appear dissolve and remained a solid particulate
